# Values of other authors as cited in US12557843B2, “Other than cannabinoids, flavonoids, and terpenes” (priority 2020, dated 2026).
# Assays:
# acetylcholinesterase = acetylcholinesterase (Homo sapiens, UniProt P22303)
# CB2 cannabinoid receptor = CB2 cannabinoid receptor (Homo sapiens, UniProt P34972)
# [1] = tested on: monoamine oxidase enzyme (MAO)
# Chain of CB2 cannabinoid receptor (P34972 whole entry): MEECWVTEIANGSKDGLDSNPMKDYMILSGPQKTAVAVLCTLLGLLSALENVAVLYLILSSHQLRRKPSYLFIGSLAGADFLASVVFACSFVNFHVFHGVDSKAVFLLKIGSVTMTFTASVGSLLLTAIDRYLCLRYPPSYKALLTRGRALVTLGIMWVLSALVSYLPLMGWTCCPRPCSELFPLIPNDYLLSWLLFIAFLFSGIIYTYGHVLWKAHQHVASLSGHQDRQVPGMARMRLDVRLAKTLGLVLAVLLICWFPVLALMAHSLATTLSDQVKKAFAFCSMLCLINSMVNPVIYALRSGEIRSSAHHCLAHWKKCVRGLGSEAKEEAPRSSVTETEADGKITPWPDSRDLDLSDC
# Chain of acetylcholinesterase (P22303 32-614, species assumed): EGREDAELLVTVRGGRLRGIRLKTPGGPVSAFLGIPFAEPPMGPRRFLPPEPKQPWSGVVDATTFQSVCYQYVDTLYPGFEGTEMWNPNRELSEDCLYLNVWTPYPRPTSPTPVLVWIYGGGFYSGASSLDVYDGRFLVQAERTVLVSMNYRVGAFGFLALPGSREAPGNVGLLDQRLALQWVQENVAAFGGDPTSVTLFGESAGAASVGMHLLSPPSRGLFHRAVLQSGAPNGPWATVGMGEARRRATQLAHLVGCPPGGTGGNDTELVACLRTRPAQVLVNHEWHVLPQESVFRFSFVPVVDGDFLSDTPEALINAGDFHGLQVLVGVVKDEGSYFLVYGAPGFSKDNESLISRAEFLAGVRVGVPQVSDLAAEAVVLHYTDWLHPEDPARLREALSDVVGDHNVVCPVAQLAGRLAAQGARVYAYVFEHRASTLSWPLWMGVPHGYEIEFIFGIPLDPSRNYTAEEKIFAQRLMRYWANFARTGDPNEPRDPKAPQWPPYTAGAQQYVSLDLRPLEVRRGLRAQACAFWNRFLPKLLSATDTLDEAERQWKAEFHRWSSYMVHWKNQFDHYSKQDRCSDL
structure (smiles),measurement,setting,value
"CC1=CCC2CC1C2(C)C (stereo not drawn) [A-pinene, α-pinene]",acetylcholinesterase inhibition,acetylcholinesterase,acetylcholinesterase inhibitor
"C=C1CC/C=C(\C)CC[C@@H]2[C@@H]1CC2(C)C [B-caryophyllene, β-caryophyllene]",effects proven in animal models,"laboratory animals; β-caryophyllene, animal models, not yet in humans",anti-inflammatory and analgesic effects
same,CB2 cannabinoid receptor activity,CB2 cannabinoid receptor,CB2 cannabinoid receptor agonist
"CC12CCC(CC1)C(C)(C)O2 [Eucalyptol, 1,8-cineol]",in vitro anti-leukaemia activity,leukaemia,in vitro anti-leukaemia properties
C=C(C)[C@H]1CC=C(C)CC1 [Limonene],effects suggested by studies on laboratory animals,"laboratory animals; limonene, rise of serotonin and dopamine in the brain",anxiolytic effects
same,apoptosis (cell death),breast cancer cells,produces apoptosis
C=CC(C)(O)CCC=C(C)C (stereo not drawn) [Linalool],effects in laboratory animals,"laboratory animals; linalool, mediated by adenosine A2A and glutamate receptors",analgesic effects
C=CC(=C)CCC=C(C)C [Myrcene],properties shown in studies on laboratory animals,"laboratory animals; myrcene, laboratory animals","sedative, hypnotic, analgesic and muscle relaxant properties"
O=c1cc(-c2ccc(O)cc2)oc2cc(O)cc(O)c12 [apigenin],action on the GABA receptors,GABA receptors,anxiolytic and sedative
COc1cc(-c2cc(=O)c3c(O)c(C/C=C(\C)CCC=C(C)C)c(O)cc3o2)ccc1O [cannaflavin-A],effect on PGE-2,PGE-2,inhibits
same,anti-inflammatory power compared with aspirin,PGE-2; relative to aspirin,exponentially more powerful than aspirin
"O=c1c(O)c(-c2ccc(O)c(O)c2)oc2cc(O)cc(O)c12 [quercitin, quercetin]",effect on monoamine oxidase enzyme (MAO),[1],inhibits
